Measurements: ChEMBL document CHEMBL4339185 (Eur J Med Chem, 2019)
Values after ≈ are worked out from the molar mass of the structure shown.

Assays:
Enterococcus faecalis [1] = assay: Potency index, ratio of rifaximin MIC to compound MIC for Enterococcus faecalis ATCC 29212; assay type: functional
[2] = test system: Staphylococcus epidermidis; assay: Potency index, ratio of rifaximin MIC to compound MIC for Staphylococcus epidermidis 12228; assay type: functional
Escherichia coli = assay: Antimicrobial activity against Escherichia coli ATCC 25922 incubated for 18 hrs by serial microdilution method; assay type: functional; settings: ATCC 25922, 18 h
[3] = test system: Staphylococcus epidermidis; assay: Potency index, ratio of rifampicin MIC to compound MIC for Staphylococcus epidermidis ATCC 12228; assay type: functional
[4] = test system: Staphylococcus epidermidis; assay: Antimicrobial activity against Staphylococcus epidermidis ATCC 12228 incubated for 18 hrs by serial microdilution method; assay type: functional; settings: ATCC 12228, 18 h
[5] = test system: Staphylococcus epidermidis; assay: Potency index, ratio of rifaximin MIC to compound MIC for Staphylococcus epidermidis ATCC 49134; assay type: functional
Enterococcus faecalis [6] = assay: Antimicrobial activity against Enterococcus faecalis ATCC 29212 incubated for 18 hrs by serial microdilution method; assay type: functional; settings: ATCC 29212, 18 h
[7] = test system: Staphylococcus epidermidis; assay: Antimicrobial activity against Staphylococcus epidermidis ATCC 49134 incubated for 18 hrs by serial microdilution method; assay type: functional; settings: ATCC 49134, 18 h
Staphylococcus aureus [8] = assay: Antimicrobial activity against MLSB-resistant Staphylococcus aureus incubated for 18 hrs by serial microdilution method; assay type: functional
Staphylococcus aureus [9] = assay: Potency index, ratio of rifaximin MIC to compound MIC for Staphylococcus aureus ATCC 6538; assay type: functional
Enterococcus faecalis [10] = assay: Potency index, ratio of rifampicin MIC to compound MIC for Enterococcus faecalis ATCC 29212; assay type: functional
[11] = Solubility of the compound in water at pH 7 by UV-vis spectrophotometric analysis; assay type: physicochemical
[12] = Lipophilicity, log P of the compound in octanol and water incubated for 1 h under shaking condition; assay type: physicochemical
[13] = test system: Staphylococcus epidermidis; assay: Potency index, ratio of rifampicin MIC to compound MIC for Staphylococcus epidermidis ATCC 49134; assay type: functional
Staphylococcus aureus [14] = assay: Antimicrobial activity against methicillin-resistant Staphylococcus aureus incubated for 18 hrs by serial microdilution method; assay type: functional
Staphylococcus aureus [15] = assay: Potency index, ratio of rifampicin MIC to compound MIC for Staphylococcus aureus ATCC 6538; assay type: functional
Staphylococcus aureus [16] = assay: Antimicrobial activity against Staphylococcus aureus ATCC 6538 incubated for 18 hrs by serial microdilution method; assay type: functional; settings: ATCC 6538, 18 h

| Structure (SMILES) | Ratio (Enterococcus faecalis [1]) | Ratio [2] | MIC (Escherichia coli) [µg/mL] | Ratio [3] | MIC [4] [µg/mL] | Ratio [5] | MIC (Enterococcus faecalis [6]) [µg/mL] | MIC [7] [µg/mL] | MIC (Staphylococcus aureus [8]) [µg/mL] | Ratio (Staphylococcus aureus [9]) | Ratio (Enterococcus faecalis [10]) | solubility [11] [µg/mL] | logP at 1 h [12] | Ratio [13] | MIC (Staphylococcus aureus [14]) [µg/mL] | Ratio (Staphylococcus aureus [15]) | MIC (Staphylococcus aureus [16]) [µg/mL] |
| --- | --- | --- | --- | --- | --- | --- | --- | --- | --- | --- | --- | --- | --- | --- | --- | --- | --- |
| CO[C@H]1/C=C/O[C@@]2(C)Oc3c(C)c(O)c4c(O)c(c(CN5CCC(N6CCC(C(=O)O)CC6)CC5)c(O)c4c3C2=O)NC(=O)/C(C)=C\C=C\[C@H](C)[C@H](O)[C@@H](C)[C@@H](O)[C@@H](C)[C@H](OC(C)=O)[C@@H]1C | 8 | 8 | > 8 | 8 | 0.0078 (≈ 0.00846 µM) | 8 | 1 (≈ 1.08 µM) | 0.0078 (≈ 0.00846 µM) | 0.0078 (≈ 0.00846 µM) | 8 | 8 | 70000 (≈ 75900 µM) | -1.34 | 8 | 0.0078 (≈ 0.00846 µM) | 8 | 0.0078 (≈ 0.00846 µM) |
| CO[C@H]1/C=C/O[C@@]2(C)Oc3c(C)c(O)c4c(O)c(c(/C=N/NC5=NCCN5)c(O)c4c3C2=O)NC(=O)/C(C)=C\C=C\[C@H](C)[C@H](O)[C@@H](C)[C@@H](O)[C@@H](C)[C@H](OC(C)=O)[C@@H]1C | 8 | 8 | > 8 | 8 | 0.0078 (≈ 0.00965 µM) | 8 | 1 (≈ 1.24 µM) | 0.0078 (≈ 0.00965 µM) | 0.0078 (≈ 0.00965 µM) | 8 | 8 | 4250 (≈ 5260 µM) | 1.33 | 8 | 0.0156 (≈ 0.0193 µM) | 8 | 0.0078 (≈ 0.00965 µM) |
| CO[C@H]1/C=C/O[C@@]2(C)Oc3c(C)c(O)c4c(O)c(c(CN5CCN(c6ccccn6)CC5)c(O)c4c3C2=O)NC(=O)/C(C)=C\C=C\[C@H](C)[C@H](O)[C@@H](C)[C@@H](O)[C@@H](C)[C@H](OC(C)=O)[C@@H]1C |  |  | > 8 |  | 0.25 (≈ 0.286 µM) |  | > 8 | 0.25 (≈ 0.286 µM) | 0.5 (≈ 0.573 µM) |  |  | < 50 | 1.99 |  | 1 (≈ 1.15 µM) |  | 2 (≈ 2.29 µM) |
| CO[C@H]1/C=C/O[C@@]2(C)Oc3c(C)c(O)c4c(O)c(c(CNC5CCN(C(=O)OC(C)(C)C)CC5)c(O)c4c3C2=O)NC(=O)/C(C)=C\C=C\[C@H](C)[C@H](O)[C@@H](C)[C@@H](O)[C@@H](C)[C@H](OC(C)=O)[C@@H]1C |  |  | > 8 |  | 0.25 (≈ 0.275 µM) |  | 4 (≈ 4.4 µM) | 0.25 (≈ 0.275 µM) | 0.5 (≈ 0.549 µM) |  |  | < 50 | 2.8 |  | 0.5 (≈ 0.549 µM) |  | 0.5 (≈ 0.549 µM) |
| CO[C@H]1/C=C/O[C@@]2(C)Oc3c(C)c(O)c4c(O)c(c(CNC5CCN(S(C)(=O)=O)CC5)c(O)c4c3C2=O)NC(=O)/C(C)=C\C=C\[C@H](C)[C@H](O)[C@@H](C)[C@@H](O)[C@@H](C)[C@H](OC(C)=O)[C@@H]1C |  |  | > 8 |  | 0.5 (≈ 0.563 µM) |  | > 8 | 0.25 (≈ 0.282 µM) | 0.5 (≈ 0.563 µM) |  |  | < 50 | 2.34 |  | 1 (≈ 1.13 µM) |  | 1 (≈ 1.13 µM) |
| CO[C@H]1/C=C/O[C@@]2(C)Oc3c(C)c(O)c4c(O)c(c(CN5CCN(C)CC5)c(O)c4c3C2=O)NC(=O)/C(C)=C\C=C\[C@H](C)[C@H](O)[C@@H](C)[C@@H](O)[C@@H](C)[C@H](OC(C)=O)[C@@H]1C |  |  | > 8 |  | 0.25 (≈ 0.309 µM) |  | > 8 | 0.25 (≈ 0.309 µM) | 1 (≈ 1.23 µM) |  |  | 100 (≈ 123 µM) | 1.76 |  | 0.5 (≈ 0.617 µM) |  | 0.5 (≈ 0.617 µM) |
| CO[C@H]1/C=C/O[C@@]2(C)Oc3c(C)c(O)c4c(O)c(c(CN5CCC6(CC5)NCCc5ccccc56)c(O)c4c3C2=O)NC(=O)/C(C)=C\C=C\[C@H](C)[C@H](O)[C@@H](C)[C@@H](O)[C@@H](C)[C@H](OC(C)=O)[C@@H]1C |  |  | > 8 |  | 2 (≈ 2.19 µM) |  | 4 (≈ 4.39 µM) | 2 (≈ 2.19 µM) | 8 (≈ 8.77 µM) |  |  | < 50 | 2.09 |  | 8 (≈ 8.77 µM) |  | 8 (≈ 8.77 µM) |
